{"source": "patent US10111967B2", "about": "“Complexes of RNA and cationic peptides for transfection and for immunostimulation” (CureVac AG, priority 2007, dated 2018)", "system": "hPBMC cells", "experiment": "Immunostimulation of hPBMC cells by RNA/peptide complexes, cytokine production (IL-6, TNF-alpha) by ELISA", "format": "cell-based, human", "conditions": "hPBMCs, 24 h; nona-arginine or mRNA alone (not complexed)", "description": "15 μg RNA stabilized luciferase mRNA according to SEQ ID NO: 36 (Luc-RNActive) were mixed in different mass ratios with nona-arginine (Arg9) or poly-L-arginine (Sigma-Aldrich; P4663; 5000-15000 g/mol), thereby forming a complex. Following mass ratios were used as shown exemplarily for ((Arg)9). Poly-L-arginine was used for comparative examples following the same instructions.\nHPBMC cells from peripheral blood of healthy donors were isolated using a Ficoll gradient and washed subsequently with 1×PBS (phosphate-buffered saline). The cells were then seeded on 96-well microtiter plates (200×1 03/well). […] The immunostimulatory effect upon the hPBMC cells was measured by detecting the cytokine production (Interleukin-6 and Tumor necrose factor alpha). […] Then, the plate was again washed with 1×PBS, containing 0.05% TWEEN®-20 surfactant, and ABTS (2,2′-azino-bis(3-ethylbenzthiazoline-6-sulfonic acid) was added as a substrate. The amount of cytokine was determined by measuring the absorption at 405 nm (OD405) using a standard curve with recombinant Cytokines (BD Pharmingen, Heidelberg, Germany) with the Sunrise ELISA-Reader from Tecan (Crailsheim, Germany). […]\nThe effect of R9H3 on immunostimulation was tested in hPBMCs. […] The immunostimulatory effect upon the hPBMC cells was measured by detecting the cytokine production (Interleukin-6 and Tumor necrose factor alpha). […]", "data": [{"substance": "Arg-Arg-Arg-Arg-Arg-Arg-Arg-Arg-Arg (RRRRRRRRR; Synthetic peptide - Exemplary oligopeptide according to formula I) [nona-arginine ((Arg)9) alone]", "values": [{"measurement": "TNFalpha production", "result": "no significant TNFalpha production"}]}]}
